According to patent US5659055A, “Cytoprotective fatty moiety compounds” (Virginia Commonwealth University, priority 1995, dated 1997):

Columns and labels:
[1] = tested on: Human SF-PLA2 Induced Mouse Paw Edema; assay: Human SF-PLA2 induced mouse paw edema, oral administration; type: in vivo
Description: The mouse paw edema is inhibited in dose related fashion by increasing concentrations of RISE-1 given orally 1.0 hours before induction of the edema by SF-PLA2.

[2] = Oxidation of arachidonic acid (decreased turbidity and hydroperoxide formation)
[3] = Autooxidation of phosphatidylethanolamine

| SMILES | oral antiinflammatory activity in this model of edema [1] | effect on the autooxidation of arachidonic acid [2] | effect on the autooxidation of phosphatidylethanolamine [3] |
| --- | --- | --- | --- |
| CCCCCCC(C/C=C\CCCCCCCC(=O)O)OC(=O)CCCCCCCCC(=O)O (stereo not drawn) [RISE-1, Ricinoleic Acid--Sebacyl Ester] | has oral antiinflammatory activity | no effect | no effect |
| CCCCC/C=C\C/C=C\CCCCCCCC(=O)OC(C/C=C\CCCCCCCC(=O)O)CCCCCC (stereo not drawn) [RALA, Ricinoleic acid--Linoleic Acid Ester] |  |  | effective inhibitors |
| CCCCCCCC/C=C\CCCCCCCCOC(=O)CCCCCCC/C=C\CC(CCCCCC)OC(=O)/C=C/C(=O)O (stereo not drawn) [OA1RAFA, Oleyl Alcohol-Ricinoleate-Fumaric Acid Diester] |  |  | effective inhibitors |
| CCCCCCCC/C=C\CCCCCCCC(=O)OC(C/C=C\CCCCCCCC(=O)O)CCCCCC (stereo not drawn) [RAOA, Ricinoleic Acid--Oleic Acid Ester] |  |  | effective inhibitors |
